# Source: patent US5800838A, “Composition that inhibits or destroys at least one unicellular living organism containing fluorine F- and Lithium li+” (priority 1987, dated 1998)
# Like-named read-outs stand apart in the source and are kept apart here.
# What was measured:
# Sarcina lutea = experiment: MIC on wild-type hospital strains (Example 6); assay type: cell-based; conditions: Micrococcus luteus, 1 strain
# Method: (§1) The MIC of benzalkonium chloride, alone and in the presence of LiF at a concentration of 1 mg/l, was determined with respect to other wild-type strains originating from hospital sources namely Streptococcus (6 strains). Staphylococcus aureus (8 strains). Salmonella typhimurium (3 strains) and Sarcina lutea (1 strain).
# Salmonella typhimurium = experiment: MIC on wild-type hospital strains (Example 6); assay type: cell-based; conditions: Salmonella enterica, 3 strains
# Method: as §1
# Staphylococcus aureus = experiment: MIC on wild-type hospital strains (Example 6); assay type: cell-based; conditions: in the presence of LiF at 1 mg/l, 8 strains
# Method: as §1
# Streptococcus = experiment: MIC on wild-type hospital strains (Example 6); assay type: cell-based; conditions: 6 strains
# Method: as §1
# Aspergillus niger = experiment: MIC on hospital strains of Aspergillus niger; assay type: cell-based; conditions: read-out: MIC of the primary active principle
# Description: (§2) The methodology employed is that described by Professor F. CATALAN, P. SEDNAOUI, A. MILOVANOVIC et al., Institut A. FOURNIER, PARIS.
# With the same methodology, the following results were observed on hospital strains of Aspergillus niger: […]
# Haemophilus influenzae = experiment: MIC on hospital strains of pyogenic microorganisms; assay type: cell-based; conditions: read-out: MIC of the primary active principle
# Description: as §2
# (§3) With the same methodology, the following results were observed on hospital strains of pyogenic microorganisms, namely […] streptococcus, Proteus vulgaris, Haemophilus influenzae: […]
# [1] = system: β-Haemolytic streptococcus; experiment: MIC on hospital strains of pyogenic microorganisms; assay type: cell-based; conditions: read-out: MIC of the primary active principle
# Description: as §2, §3
# Proteus vulgaris = experiment: MIC on hospital strains of pyogenic microorganisms; assay type: cell-based; conditions: read-out: MIC of the primary active principle
# Description: as §2, §3
# Pseudomonas aeruginosa = experiment: MIC on 200 wild-type strains of Pseudomonas aeruginosa (Examples 19 and 20); assay type: cell-based; conditions: Pseudomonas aeruginosa
# Method: With the same methodology as above, the MIC values of benzalkonium chloride alone, in the presence of the KATHON CG (registered trademark) preservative (1 mg/l), and then in the presence of KATHON CG (registered trademark) (1 mg/l) and lithium fluoride (1 mg/l), were determined. 200 wild-type strains of Pseudomonas aeruginosa were tested.
# The same trial as in Example 19 was performed, but with nonoxinol 9 as the primary active principle: 200 wild-type strains of Pseudomonas aeruginosa were also tested.
# Trichomonas vaginalis = experiment: Number of strains inhibited / MIC, same methodology as example 4; assay type: cell-based; conditions: for MIC: Trichomonas vaginalis
# Method: In the first trial, the sample of bactericidal substance was incorporated directly in the specific culture edium of the microorganism. A concentration series of the bactericidal substance was prepared in the geometric ratio of 2, from 400 μg/ml to 1.56 μg/ml. The cell concentration used in the seeding of the Petri dishes was […]. A 24-hour incubation was performed at 37° C. and then, for each wild-type strain tested, the concentration of primary principle destroying all the microorganisms (see method of Professor F. CATALAN et al., Institut A. FOURNIER, PARIS) was determined. The trail was performed on 32 wild-type strains of Gardnerella vaginalis originating from hospital sources and with benzalkonium chloride and then nonoxinol 9 as active principles, and with sodium fluoride NaF at a concentration of 1 mg/l and then lithium fluoride LiF at a concentration of 1 mg/l as activating principles.
# The same methodology as in example 4 was used on 15 strains of Trichomonas vaginalis.
# Candida albicans = experiment: MIC on hospital strains of Candida albicans; assay type: cell-based; conditions: read-out: MIC of the primary active principle
# Method: as §2
# With the same methodology, trials were performed on hospital strains of Candida albicans: […]
# Chlamydia trachomatis = experiment: MIC on Chlamydia trachomatis strains; assay type: cell-based; conditions: listed test strain, read-out: MIC of benzalkonium chloride
# Method: The test was performed on 12 strains of Chlamydia trachomatis originating from hospital sources, in particular from cases of urethritis. All the trials were performed in duplicate, and the results compared with those for a listed control strain.
# The MIC corresponds to the concentration of benzalkonium chloride at and above which the average number of colonies in Petri dishes containing the active substance is less than one tenth of the average number of colonies in Petri dishes without active substance.
# [2] = system: Mycobacterium smegmatis CNCM 7 326; conditions: cited from earlier work
# [3] = system: Streptococcus faecalis CNCM 5 855; conditions: cited from earlier work
# [4] = in the presence of LiF at 1 mg/l
# [5] = in the presence of LiF at 0.96 mg/l
# [6] = in the presence of LiF at 1 mg/l and of KATHON CG preservative at 0.4 mg/l
# [7] = in the presence of NaF at 1 mg/l
compound,measurement,setting,value
"CCCCCCCCCCCCCC[N+](C)(C)Cc1ccccc1.[Cl-] [benzalkonium chloride, myristyldimethylbenzylammonium chloride]",MIC,Sarcina lutea; alone,15 µg/mL
same,MIC,Sarcina lutea; [4],11 µg/mL
same,MIC,Salmonella typhimurium; alone,17 µg/mL
same,MIC,Salmonella typhimurium; [4],12 µg/mL
same,MIC,Staphylococcus aureus,0.3 µg/mL
same,MIC,Streptococcus; alone,18 to 20 µg/mL
same,MIC,Streptococcus; [4],10 µg/mL
same,MIC,Aspergillus niger; alone,50 µg/mL
same,MIC,Aspergillus niger; in the presence of LiF at 0.96 mg/l and of KATHON CG preservative at 0.234 mg/l,100 µg/mL
same,MIC,Aspergillus niger; [5],135 µg/mL
same,MIC,Haemophilus influenzae; alone,200 µg/mL
same,MIC,Haemophilus influenzae; [6],150 µg/mL
same,MIC,[1]; alone,50 µg/mL
same,MIC,[1]; [6],25 µg/mL
same,MIC,Proteus vulgaris; alone,25 µg/mL
same,MIC,Proteus vulgaris; [6],18.5 µg/mL
same,MIC,"Pseudomonas aeruginosa; + KATHON CG (1 mg/l) + LiF (1 mg/l), strain Tic R βLac^+",16 µg/mL
same,MIC,"Pseudomonas aeruginosa; + KATHON CG (1 mg/l) + LiF (1 mg/l), strain Tic R βLac^+ OXA",16 µg/mL
same,MIC,"Pseudomonas aeruginosa; + KATHON CG (1 mg/l) + LiF (1 mg/l), strain Tic R βLac^+ PSE",32 µg/mL
same,MIC,"Pseudomonas aeruginosa; + KATHON CG (1 mg/l) + LiF (1 mg/l), strain Tic R βLac^+ TEM",32 µg/mL
same,MIC,"Pseudomonas aeruginosa; + KATHON CG (1 mg/l) + LiF (1 mg/l), strain Tic R βLac^+ cephalosporinase",32 µg/mL
same,MIC,"Pseudomonas aeruginosa; + KATHON CG (1 mg/l) + LiF (1 mg/l), strain Tic S βLac^-",16 µg/mL
same,MIC,"Pseudomonas aeruginosa; + KATHON CG (1 mg/l), strain Tic R βLac^+ OXA, read-out: MIC",32 µg/mL
same,MIC,"Pseudomonas aeruginosa; + KATHON CG (1 mg/l), strain Tic R βLac^+ PSE, read-out: MIC",64 µg/mL
same,MIC,"Pseudomonas aeruginosa; + KATHON CG (1 mg/l), strain Tic R βLac^+ TEM, read-out: MIC",32 µg/mL
same,MIC,"Pseudomonas aeruginosa; + KATHON CG (1 mg/l), strain Tic R βLac^+ cephalosporinase, read-out: MIC",128 µg/mL
same,MIC,"Pseudomonas aeruginosa; + KATHON CG (1 mg/l), strain Tic R βLac^+, read-out: MIC",32 µg/mL
same,MIC,"Pseudomonas aeruginosa; + KATHON CG (1 mg/l), strain Tic S βLac^-, read-out: MIC",16 µg/mL
same,MIC,"Pseudomonas aeruginosa; alone, strain Tic R βLac^+",64 µg/mL
same,MIC,"Pseudomonas aeruginosa; alone, strain Tic R βLac^+ OXA, read-out: MIC",64 µg/mL
same,MIC,"Pseudomonas aeruginosa; alone, strain Tic R βLac^+ PSE, read-out: MIC",64 µg/mL
same,MIC,"Pseudomonas aeruginosa; alone, strain Tic R βLac^+ TEM, read-out: MIC",32 µg/mL
same,MIC,"Pseudomonas aeruginosa; alone, strain Tic R βLac^+ cephalosporinase, read-out: MIC",128 µg/mL
same,MIC,"Pseudomonas aeruginosa; alone, strain Tic S βLac^-, read-out: MIC",32 µg/mL
same,MIC,Trichomonas vaginalis; alone,25 µg/mL
same,MIC,Trichomonas vaginalis; in the presence of LiF,6.25 µg/mL
same,number of strains inhibited out of the 15 tested,"Trichomonas vaginalis; benzalkonium chloride 1.56 mg/l, LiF 1 mg/l where added",1
same,number of strains inhibited out of the 15 tested,"Trichomonas vaginalis; benzalkonium chloride 3.125 mg/l, LiF 1 mg/l where added",3
same,number of strains inhibited out of the 15 tested,"Trichomonas vaginalis; benzalkonium chloride 6.25 mg/l, LiF 1 mg/l where added",9
same,number of strains inhibited out of the 15 tested,Trichomonas vaginalis; benzalkonium chloride 12.5 mg/l,13
same,number of strains inhibited out of the 15 tested,Trichomonas vaginalis; benzalkonium chloride 25 mg/l,15
same,MIC,Candida albicans; alone,50 µg/mL
same,MIC,Candida albicans; in the presence of LiF at 0.96 mg/l and of KATHON CG preservative at 0.234/mgl,2 µg/mL
same,MIC,Candida albicans; [5],135 µg/mL
same,MIC,Chlamydia trachomatis; 1 mg/ml added (lithium fluoride),13 µg/mL
same,MIC,Chlamydia trachomatis; alone,18 µg/mL
same,MIC of benzalkonium chloride,[2]; alone,30 mg/L
same,MIC of benzalkonium chloride,[2]; [7],26 mg/L
same,MIC of benzalkonium chloride,[3]; alone,4 mg/L
same,MIC of benzalkonium chloride,[3]; [7],3.6 mg/L
